The text below walks through data of PMC8586984, “Antiviral Potential of Naphthoquinones Derivatives Encapsulated within Liposomes” (Molecules, 2021).

One data set has as its system HSV-1. Also noted: method as in PMID 24493066, PMID 26913545. Conditions: free compounds, previous studies against HSV-1; ref [36],[38]; cited from earlier work.
Another data set is described as follows: Cytotoxicity assay (MTT). Format: cell-based, African green monkey (Cercopithecus aethiops). To be noted: African green monkey, free (not encapsulated), Vero cells. The procedure:
Initially, we evaluated the influence of liposomes on cell viability. For this, monolayers of Vero cells (10^4 cells/mL) were incubated with several concentrations of 2-aminomethyl-3-hydroxy-1,4 naphthoquinone derivatives that either were or were not encapsulated in the liposome (0.5 to 10 μM) for 48 h at 37 °C (Table 2). Following this, 1 mg/mL of 3-(4,5-Dimethylthiazol-2-yl)-2,5 Diphenyl Tetrazolium Bromide was added to each well for 4 h at 37 °C and the resulting purple formazan was followed at 570 nm. Since liposomes are considered an excellent delivery system, it may be reasonable for the liposome to increase the cytotoxic effect on cells.
Vero cells cultivated in 96-multiwell plates (1 × 10^4 cells/well) were incubated with liposomes coupled to 2-aminomethyl-3-hydroxy-1,4-naphthoquinones in different concentrations (0.5, 1, 5 and 10 μM) for 48 h at 37 °C and 5% CO2 atmosphere. Then, 50 μL of 3-(4,5-dimethylthiazol-2-yl)-2,5 diphenyl MTT (1 mg/mL, Sigma-Aldrich, St Louis, MO, USA) was added to each well for 4 h at 37 °C [48]. The MTT reduction in living cells creates formazan, a purple compound that is absorbed at 570 nm. The 50% cytotoxic concentration (CC50) was calculated by linear regression analysis of the dose–response curves.

The subject of the next data set is HSV-1 strain SC-16. The data set can be described thus: Yield reduction assay. Conditions: for EC50: Human alphaherpesvirus 1, SC16; for SI (CC50/EC50 ratio): free (non-encapsulated) derivatives, concentrations up to 10 μM. The class given is cell-based, Herpes Simplex Virus 1. The method, then:
Briefly, after incubation with HSV-1 (MOI of 0.1) for 1 h at 37 °C, cells were washed with MEM 5% FCS and incubated with acyclovir, […] from 0.01 to 10 μM for 24 h in atmosphere, with 5% CO2 at 37 °C. After the dilution (1:10) of the viral suspension, new 24-well plates were used to determine the EC50 values, based on viral control.
For all antiviral assays, strain SC-16 HSV-1 was used at a multiplicity of infection (MOI) of 0.1 to infect Vero cells at 3 × 10^5 cells/well using a modified yield reduction assay. All aminomethylnaphthoquinone derivatives were previously diluted in pre-chilled MEM with 5% FCS.
To determine the HSV-1 title, Vero cells maintained in 24-multiwell plates (3 × 10^5 cell/well) were infected with HSV-1 strain SC-16 ([…]) for 1 h at 37 °C and 5% CO2 atmosphere.
After the removal of the viral inoculum, cells were treated with 0.01 µM to 10 µM of compound 1, 2, 3 and ACV encapsulated in liposomes for 24 h at 37 °C and 5% CO2 atmosphere. Then, the cells were subjected to three cycles of freezing and thawing and the inoculum diluted (1:10) to a new infection in 24-multiwell plates (10^5 cells/well) for 1 h at 37 °C and 5% CO2 atmosphere. The cells were covered with MEM 2X, 5% FCS and 2% methylcellulose for 48h at 37 °C and the viral title was determined by the number of viral plaque units per mL (PFU/mL). EC50 values, which means the drug concentration able to inhibit 50% of the viral plaque formation, were determined by linear regression compared to the untreated infected control.

Another data set has as its system BALB/c. Also noted: method as in earlier work. Conditions: oral administration, ref [37]; cited from earlier work.

The structures appear in SMILES notation.

By CC50 is commonly meant the concentration that lowers cell viability or growth by half. Low readings indicate harm at low concentration, high ones better tolerance by the cells. Turning to `Nc1nc2c(ncn2COCCO)c(=O)[nH]1` [Acyclovir, acyclovir, reference compound], the SI in the data set on HSV-1 was 0.80. In addition, in “Cytotoxicity assay (MTT)”, the CC50 at 48 h came out at 15 ± 1 µM.
What is called EC50 is the concentration giving half of the maximal effect. Lower therefore signals an effect from little substance. As for `CCCCNC(C1=C(O)C(=O)c2ccccc2C1=O)c1ccc(Cl)cc1Cl` (stereo not drawn) [compound 1], in the data set on HSV-1 strain SC-16, a half-maximal response (EC50) required 1980 ± 300 nM and the “SI (CC50/EC50 ratio)” value stood at 9.6. For the same compound, in the data set with BALB/c, the “Effect on transaminases level or kidneys functions” value is given as “no effect on transaminases level or kidneys functions”. This compound yielded a CC50 at 48 h in “Cytotoxicity assay (MTT)” of 19 ± 1 µM.
Take `O=C1C(O)=C(C(NCc2ccccc2)c2ccc(Cl)cc2Cl)C(=O)c2ccccc21` (stereo not drawn) [compound 2]: in the data set with HSV-1 strain SC-16, a half-maximal response (EC50) required 1060 ± 490 nM and the “SI (CC50/EC50 ratio)” value is 20.75. The compound also gave a CC50 at 48 h in the data set “Cytotoxicity assay (MTT)” of 22 ± 2 µM.
For `O=C1C(O)=C(C(NCc2ccccc2)c2ccc([N+](=O)[O-])cc2)C(=O)c2ccccc21` (stereo not drawn) [compound 3], in that order: 3100 nM, 5.48 and 17 ± 2 µM.
